{"source": "patent US9518300B2", "about": "“Composition and method for treating a hematological malignancy” (Dana-Farber Cancer Institute, Inc., priority 2014, dated 2016)", "key": {"[1]": {"test_system": "BCL9", "assay": "BCL9 and Wnt target gene expression after ectopic miR-30 expression (Q-RT-PCR, immunoblot, IF)", "type": "cell-based, human", "conditions": "H929 cells", "excerpt": "We next investigated whether BCL9 mRNA expression is regulated by miR-30s in MM cells using both gain- and loss-of function studies. For gain-of-function studies we used H929 cells that express the lowest levels of miR-30s among the MM cell lines examined (FIG. 1C).\nWe first induced ectopic expression of individual V-miR-30s family members in H929 cells using lentiviral infection. After flow sorting of GFP positive cells, levels of miR-30s were verified by Q-RT-PCR (FIG. 3A) and then used in subsequent experiments."}, "[2]": {"test_system": "BCL9", "assay": "Transient transfection of mature miR-30c, BCL9 immunoblot in RPMI8226 cells", "type": "cell-based, human", "conditions": "increasing amounts of mature miR-30c, 72 hours, control cel-miR-67", "experimental": "To exclude the possibility that the observed changes in BCL9 expression may be due to non specific and/or secondary effects of stable transfection of V-miR-30c, we also performed transient transfection with increasing amounts of mature miR-30c into RPMI8226 cells, using cel-miR-67 as a control (FIG. 3F).\nTo confirm transfection efficiency, cells were collected 72 hours after transfection, and miR-30c expression levels were checked by Q-RT-PCR (FIG. 3F, top). We found an inverse association between downregulation of BCL9 protein expression and increasing amounts of transfected mature miR-30c (FIG. 3F, bottom)."}, "[3]": {"test_system": "BCL9", "assay": "Transfection of patient CD138+ primary cells, IF of BCL9, CD44, Axin2", "type": "cell-based, human", "conditions": "CD138+ primary cells (n=3), 40 pmol, control cel-miR-67", "excerpt": "(§1) In order to verify miR-30's potential for therapy in MM patients, CD138+ primary cells (n=3) were transfected with 40 pmol of mature miR-30c or same amount of cel-miR-67 as control."}, "[4]": {"test_system": "CD138+ primary cells", "assay": "Proliferation of patient CD138+ primary MM cells, [3H] thymidine uptake", "type": "cell-based, human", "conditions": "40 pmol", "experimental": "Cell proliferation was assessed by [^3H] thymidine uptake as described (1). For apoptosis, cells were stained with Annexin-V-Fluos (Boehringer, Mannheim, Germany). Stained cells were analyzed by flow cytometry, and data were analyzed by use of CellQuest (Becton-Dickinson, Sunnyvale, Calif.). Cell invasion and migration assays were done as described (2).\nas §1"}, "[5]": {"test_system": "H929 cells", "assay": "Dexamethasone sensitivity of H929 cells co-cultured with HS-5 BMSCs (CAM-DR)", "type": "cell-based, human", "conditions": "H929 with HS-5 cells 48 h, 200 nM dexamethasone, control cel-miR-67", "excerpt": "Reasoning that CD44 is a downstream target of Wnt/β-catenin/BCL9 transcriptional complex, and that miR-30c downregulates expression of CD44 in MM cells (FIG. 3B), and that CD44 is a functional component of cell adhesion-mediated drug resistance (CAM-DR), we investigated the possible role of miR-30s in MM drug resistance in the context of a bone marrow (BM) microenvironment. After ectopic overexpression of miR-30c or miR-30a/b/c/d/e cocktail (miR-30mix) or a negative control (cel-miR-67) in H929 cells, we co-cultured these cells alone or in the presence of HS-5 cells for 48 h and treated them with 200 nM dexamethasone."}, "[6]": {"assay": "μCT of bone in mice not transplanted with myeloma cells", "type": "in vivo", "conditions": "SCID mice not transplanted, 10 days of treatment, versus vehicle", "experimental": "Micro-computed topographic (μCT) imaging was performed on the L4-L6 vertebrae of the intact spine of a subset of mice using a high-resolution desktop imaging system (μCT40, Scanco Medical AG, Bruttisellen, Switzerland). Scans were acquired using a 12 μm^3 isotropic voxel size, 70 kVp peak x-ray tube potential, and 200 ms integration time. Cortical and trabecular bone micro architecture was quantified in the 5th lumbar vertebral body in a region beginning 120 μm below the cranial growth plate and ending 120 μm above the caudal growth plate. To assess cortical lesions, we determined the cortical bone volume (Ct.BV) and total volume (Ct.TV) of the ventral face of the vertebral body. Cortical void fraction (%) was calculated as 1−(Ct.BV/Ct.TV)*100 and represents the percent of the ventral face that was void of bone. Trabecular bone volume fraction (Tb.BV/Tb.TV, %) was measured in the region of interest. […]\nMicro-computed topographic (μCT) imaging was performed on the L4-L6 vertebrae of the intact spine of a subset of mice using a high-resolution desktop imaging system ([…], Scanco Medical AG, Bruttisellen, Switzerland). […] Cortical and trabecular bone micro architecture was quantified in the 5th lumbar vertebral body in a region beginning 120 μm below the cranial growth plate and ending 120 μm above the caudal growth plate. […]"}}, "data": [{"substance": "miR-30c: microRNA, UGUAAACAUCCUACACUCUCAGC (SEQ ID NO: 3 / 29) (listed as RNA, chemistry not given here; listed as Homo sapiens)", "values": [{"measurement": "expression of BCL9 mRNA", "setting": "[1]", "result": "significant reduction"}, {"measurement": "expression of Wnt pathway downstream targets CD44 and Axin2", "setting": "[1]", "result": "reduced expression"}, {"measurement": "BCL9 protein expression", "setting": "[2]", "result": "downregulation"}, {"measurement": "expression of BCL9, CD44 and Axin2", "setting": "[3]", "result": "downregulated"}, {"measurement": "MM cell proliferation", "setting": "[4]", "result": "dramatically inhibited"}, {"measurement": "sensitivity to dexamethasone treatment", "setting": "[5]", "result": "resensitize"}, {"measurement": "bone osteolytic lesions", "setting": "[6]", "result": "No apparent development"}]}]}
